Assay results as given in patent US20250249013A1, “COMBINATION METABOLIC-EPIGENETIC TREATMENT FOR EARLY LUNG CANCER” (THE REGENTS OF THE UNIVERSITY OF CALIFORNIA, priority 2022, published 2025).

Key:
KP mice carrying LUADs [1] = assay: KP mice treated with empagliflozin for 6 weeks: lung histology (H&E) and IHC; assay type: in vivo, mouse
Protocol: (§1) Lung tumors were induced by intranasal administration of Adeno-Cre (purchased from University of Iowa Viral Vector Core) as previously described (Scafoglio et al., 2018), or by transthoracic injection of Adeno-Cre in KPluc mice. All treatment trials were performed 2 weeks after tumor induction, and the results of biological duplicates were pooled for statistical analysis. In all trials, mice were assigned to therapeutic groups so that there were no significant differences in baseline tumor burden, age, sex, or weight among the different groups.
In the trial for assessment of tumor differentiation by immunohistochemistry (FIG. 1A-E, 6L-M, and EV1A-C) lung tumors were induced by intranasal administration of Adeno-Cre. After tumor induction, mice (n=11 for placebo and 13 for empagliflozin group) were treated with either placebo (DMSO 5%, PEG 30%, Tween80 10%) or empagliflozin (10 mg/Kg/d by oral gavage) for 6 weeks and then sacrificed for lung collection and fixation in formalin.
For the GEMMs, the mouse lungs were collected and inflated with 10% formalin in phosphate-buffered saline. After 24 hours, formalin was replaced to 70% ethanol. All tissues were paraffin-embedded and sliced into […] sections in the Translational Pathology Core Laboratory (TPCL) at UCLA.
For IHC staining, the slides were deparaffinized by overnight incubation at 65° C., followed by rehydration by serial passages in xylenes (three washes of 5 min in 100% xylenes) and decreasing concentrations of ethanol (two washes in 100% ethanol, two washes in 95%, one wash in 80%, one wash in 70%, and one wash in water). Antigen retrieval was performed for 23 min in AR6 (pH 6.0) buffer.
Blocking was performed with 5% goat serum for 1 hour at room temperature, followed by incubation with primary antibodies overnight at 4° C. Incubation with biotin-labeled secondary antibody was performed at room temperature for 1 hour, followed by incubation with avidin-biotin peroxidase complex and ImmPACT 3,3′-diaminobenzidine (DAB). Counterstain was performed with Harris' haematoxylin diluted 1:5 in water, followed by […] step and mounting slide. After the staining, digital images of the slides were obtained with an Aperio ScanScope slide scanner (Leica Biosystems). The quantification was performed using the QPath software. Briefly, regions of interests were drawn blindly in each slide to include each tumor present in a whole-lung section, followed by cell detection and quantification of the DAB signal using a constant threshold for all samples in the same experiment. Staining intensity in each cell was classified as negative (0), weak (1), median (2), or strong (3). The results were expressed as H score.
QuPath (Bankhead et al, 2017) was used for signal quantification in IHC staining. It was expressed as H score. Kaplan-Meier curves were performed with Kaplan-Meir Plotter tool (Gyorffy, 2021), using the lung cancer section. For the selected genes only, the best probe was used. All dataset available were used as cohort. For Kaplan-Meier plot performed using multiple genes, the option “use mean expression of selected genes” was set.

KP mice carrying LUADs [2] = assay: Combination treatment trial in KP mice, tumor burden by bioluminescence imaging; assay type: in vivo, mouse; settings: 6 weeks from week 2, empagliflozin 10 mg/kg/d, tazemetostat 125 mg/kg/bid, oral gavage
Protocol: as §1
In the combination treatment trial (FIG. 3F-G), mice received the first BLI measurement two weeks post-AdenoCre administration for measurement of the baseline tumor burden. Four therapeutic groups were established as follows: (i) Placebo (n=11), receiving oral gavage of vehicle (DMSO 5%, PEG 30%, Tween80 10%); (ii) SGLT2 inhibitor Empaglifozin (10 mg/Kg/d, n=13); (iii) EZH2 inhibitor Tazemetostat (125 mg/Kg/bid, n=10); (iiii) Empaglifozin and Tazemetosat (n=19). Each group received bi-daily administration by oral gavage.

KP mice carrying LUADs [3] = assay: KP mice treated with empagliflozin, ex vivo BLI, then tail vein re-injection of sorted tumor cells in syngeneic mice; parameters: species or system mouse
Protocol: For our studies on the investigation of cell aggressiveness due to the glucose deprivation, we used syngeneic FVB mice. Two experiments were performed, in biological duplicate.
In the second experiment (FIG. 2G-J), KP mice injected transthoracically with AdenoCre were treated for 3 weeks with either placebo (n=3) or empagliflozin (n=3), and sacrificed for lung collection. Tumors were identified in the murine lungs by ex vivo bioluminescence and dissociated. Tumor single cells were resuspended in cold PBS followed by magnetic beads sorting (Miltenyi Biotec) to isolate the Epcam-positive epithelial cells. Finally, sorted tumor cells were injected by tail vein inoculation (1,000,000 cells/mouse) into syngeneic mice (n=6 per group). Tumor burden was measured by bioluminescence until 13 weeks after inoculation.

KP mice carrying LUADs [4] = assay: ELISA for H3K27me3 in KP tumors after empagliflozin; assay type: in vivo, mouse; settings: transthoracic AdenoCre, empagliflozin for 1 week, vs placebo
Protocol: For the measurement of in vivo HeK27 trimethylation (FIG. 3B), mice (n=4 per group) received transthoracic adenoCre and were treated for 3 weeks with either placebo (0.5% hypromellose-methyl cellulose) or empagliflozin (10 mg/Kg/d by oral gavage) followed by lung collection and histone extraction for ELISA assay.
The levels of trimethylation on H3K27me3 in tumors treated with empaglifozin were detected by ELISA kits (Active Motif) according to the manufacturer's instructions. The experiment was carried out with 4 replicates for each group. After tumor collecting, histone extraction was performed.
We used H3K27me3 and H3 total antibodies for plate coating. The absorbance was detected by Varioskan Lux (Thermo Fisher Scientific). The H3K27me3 levels were normalized to H3 total and presented as optical densitometry (O. D.) 450 nm of a ratio of H3K27me3/H3.

KP mice carrying LUADs [5] = assay: KP mice treated with empagliflozin for 4 weeks: RT-PCR on lung tumors; assay type: in vivo, mouse; settings: vs placebo
Protocol: as §1
In the trial for assessment of tumor differentiation by RT-PCR (FIGS. 1F and 6C) mice (n=3) received intranasal AdenoCre and treatment with either placebo (0.5% hypromellose-methyl cellulose) or empagliflozin (10 mg/Kg/d by oral gavage) for 4 weeks, followed by tumor collection and RNA extraction. RT-PCR was performed in technical triplicates, yielding a total of 9 experimental points per group.
(§2) Total RNA was extracted from A549, NCI-H358 and 2953A by using TRI Reagent Solution (Applied Biosystem), according to manufacturer instruction. RNA concertation was assayed by Nanodrop 3000 spectrophotometer (Thermo Fisher Scientific). Then, 1 μg of RNA was treated with DNase I (Thermo Fisher Scientific) and used for cDNA preparation.
(§3) cDNA was prepared using 1 μg of RNA with SuperScript IV Reverse Transcriptase (Invitrogen). SYBR green-based RT-PCR kit (Biorad) was performed using human and mouse primers (See Table EV11). mRNA levels were normalized to GAPDH (ΔCt=Ctgene of interest-Ct GAPDH) and presented as relative mRNA expression (ΔΔCt=2-(ΔCtsample-ΔCtcontrol)). All primers were designed by NCBI Primer-BLAST and purchased from Integrated DNA Technologies.

A549 cells = assay: αKG rescue in low glucose, western blot and RT-PCR; assay type: cell-based, human; settings: A549, 2 hours in low glucose, αKG
Protocol: (§4) Human lung cancer A549 (CCL-185) and NCI-H358 (CRL-5807) cells lines were purchased from American Type Culture Collection (ATCC, Manassas, VA). Cells were maintained in culture according to manufacturer protocol using Roswell Park Memorial Institute (RPMI) 1640 medium (Corning, Cat. #10-040CV) supplemented with 10% FBS and 5% 1× Pen-Strep and kept in 37° C. and 5% of CO2. Murine 2953A cell line was established in our lab from a KP lung tumor by tissue dissociation. This cell line was maintained in culture in Dulbecco's modified Eagle Medium (DMEM) medium (Corning, Cat. #10-017CV) with 5% FBS and 5% 1× Pen-Strep.
(§5) All experiments in cell lines were performed in biological triplicate. Cells were seeded at same confluence and grown for 5 days (and for some experiments overnight or up to 9 days or 30 days, as indicated in the figures and text) in different concentration of glucose: high (20 mM), low (1 mM) and for some experiments medium (5 mM), as indicated. We used mediums with glutamine and without glucose: RPMI (Corning Cat. #10-043CV) for A549 and NCI-H358 cells, DMEM (ThermoScientific Cat. #11566025) for 2953A cells, supplemented with 10% FBS, 5% of 1× Pen-Strep and complemented with D-Glucose to the desired final concentration, as indicated in the figures.
(§6) All αKG rescue experiments were conducted using 10 mM alpha-ketoglutarate (α-KG; Sigma) and α-Mannitol (Sigma) as osmotic control.
(§7) For total protein extraction, cells were harvested, washed twice with ice-cold PBS-EDTA (0.5 mm EDTA), lysed using RIPA buffer (50 mM Tris-HCl pH 7.6, 150 mM NaCl, 0.1% SDS, 0.5% C24H39NaO4, 1% NP-40, 2 mm EDTA, 50 mm NaF) for 15 min on ice and centrifuged at 13,000 rpm for 30 min at +4° C. The resulting protein extracts were quantified using BCA protein assay followed by analysis by SDS-PAGE and Western blotting.
(§8) Histones was extracted from A549, NCI-H358 and 2953A cell lines using the Histone extraction kit (Abcam) according to manufacturer instructions.
(§9) SDS-PAGE and Western blotting analyses were performed using standard protocols. For antibodies information, see Reagents and Tools Table. Western blot images were detected by iBright Imaging Systems (Thermo Fisher Scientific). The protein detected was normalized to Actin or H3 total antibodies, this last in case of histonic extract. Each immunodetection derived from the same membrane was performed with the same exposure times according to the manufacture's antibody guidelines and was cropped only for presentation purposes; this is indicated by a dotted line.
as §2, §3

NCI-H358 cells = assay: αKG rescue in low glucose, western blot and RT-PCR; assay type: cell-based, human; settings: NCI-H358, 2 hours in low glucose, αKG
Protocol: as §4, §5, §6, §7, §8, §9, §2, §3

MCF7 = assay: αKG rescue of FoxA2 in low glucose, western blot; assay type: cell-based, human; settings: MCF7 breast cancer cells, low glucose 5 days
Protocol: (§10) For the glutamine deprivation experiment, A549 and NCI-H358 cell lines were also seeded and grown up to 5 days in DMEM without glutamine and glucose (Corning Cat. #17-207CV) and complemented with L-glutamine (GlutaMAX CTS, Gibco) to a final concentration of either 6 mM (high glutamine) or 2 mM (low glutamine) and D-Glucose to a final concentration of either 10 mM (high glucose) or 1 mM (low glucose). Finally, breast cancer (MCF7) and pancreatic cancer (PANC1) cell lines were purchased from ATCC and were seeded and grown up to 5 days in RPM11640 complemented with D-Glucose to a final concentration of either 20 mM or 1 mM.
as §6, §9

PANC1 = assay: αKG rescue of FoxA2 in low glucose, western blot; assay type: cell-based, human; settings: PANC1 pancreas cancer cells, low glucose 5 days
Protocol: as §10, §6, §9

[6] = system: long non-coding RNA HIFAL; assay: Expression of HIFAL in low glucose with αKG; assay type: cell-based; settings: cell line not stated (Fig. EV5F-G)
Protocol: as §6, §3

[7] = empagliflozin 10 mg/kg/d, 6 weeks, vs placebo
[8] = KP tumors week 6, empagliflozin 4 weeks

OC[C@H]1O[C@@H](c2ccc(Cl)c(Cc3ccc(O[C@H]4CCOC4)cc3)c2)[C@H](O)[C@@H](O)[C@@H]1O [empagliflozin]
differentiation of lung lesions, visual inspection of H&E staining (KP mice carrying LUADs [1]; empagliflozin 10 mg/kg/d oral gavage, week 2 to week 8 post-AdenoCre, vs placebo): more poorly differentiated
clear cell component of tumors (KP mice carrying LUADs [1]; empagliflozin 10 mg/kg/d, 6 weeks, completely absent from placebo tumors): some of the tumors in the empagliflozin group had a clear cell component
E-cadherin IHC signal (H score) (KP mice carrying LUADs [1]; [7]): significant down-regulation
FoxA2 IHC signal (H score) (KP mice carrying LUADs [1]; [7]): significant reduction
Ttf-1 IHC signal (H score) (KP mice carrying LUADs [1]; [7]): significant reduction
micropapillary component of murine tumors, pathological quantification (KP mice carrying LUADs [1]; [7]): increasing
solid component of murine tumors, pathological quantification (KP mice carrying LUADs [1]; [7]): significantly reducing
tumor burden by bioluminescence imaging, compared with placebo (KP mice carrying LUADs [2]): significantly reduced
tumor burden, ex vivo BLI (KP mice carrying LUADs [3]; KP mice, empagliflozin week 2 to week 5 after transthoracic AdenoCre, vs placebo): significantly reduced
tumors formed after re-injection of treated tumor cells in syngeneic mice, BLI (KP mice carrying LUADs [3]; same number of sorted epithelial cells by tail vein, BLI at week 13, vs placebo group): formed larger tumors than the placebo group
tri-methylation on H3K27 (H3K27me3 over total H3), ELISA (KP mice carrying LUADs [4]): significant increase
HIF1α RNA levels, RT-PCR (KP mice carrying LUADs [5]; KP murine tumors, empagliflozin 4 weeks): significant up-regulation
surfactant protein C (SpC) expression, qPCR (KP mice carrying LUADs [5]; KP tumors collected week 6 post-induction, empagliflozin 10 mg/kg/d 4 weeks): significant reduction
FoxA2 expression, qPCR (KP mice carrying LUADs [5]; [8]): significant reduction
FoxJ1 expression (ciliated cell marker), qPCR (KP mice carrying LUADs [5]; [8]): reduced expression
HmgA2 expression, qPCR (KP mice carrying LUADs [5]; [8]): increase
Pdpn expression (type I alveolar cell marker), qPCR (KP mice carrying LUADs [5]; [8]): reduced expression
Scgb3A2 expression (Clara cell marker), qPCR (KP mice carrying LUADs [5]; [8]): reduced expression
Ttf1 expression, qPCR (KP mice carrying LUADs [5]; [8]): significant reduction

O=C(O)CCC(=O)C(=O)O [αKG, alpha-ketoglutarate]
activation of HIF1α after short-time glucose deprivation, western blot (A549 cells): rescued
activation of HIF1α after short-time glucose deprivation, western blot (NCI-H358 cells): rescued
low glucose-induced FoxA2 down-regulation, western blot (MCF7): rescued
low glucose-induced FoxA2 down-regulation, western blot (PANC1): rescued
activation of HIFAL in low glucose [6]: completely rescued
